Assay results as given in patent US20250388574A1, “HETEROCYCLIC COMPOUNDS AS TRIGGERING RECEPTOR EXPRESSED ON MYELOID CELLS 2 AGONISTS AND METHODS OF USE” (AMGEN INC., priority 2020, published 2025).

Target: hTREM2 (Homo sapiens, UniProt Q9NZC2)
Assay: Phospho-Syk AlphaScreen/AlphaLISA assay in TREM2 and DAP12 overexpressing HEK293 cells (Example A1)
Format: cell-based
Set-up: expressed in transfected cells
Settings: HEK293 cells; for EC50: read-out: hTREM2 EC50
In short: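 Agonism read as Syk phosphorylation: compounds in 1% DMSO applied 45 min at room temperature to TREM2/DAP12-HEK293 cells after 20 h culture. Lysis buffer with phosphatase inhibitors and anti-phospho-Syk plus biotinylated anti-Syk antibodies, then AlphaLISA beads (680 nm excitation); percent of control computed from antibody/isotype wells, curves fitted sigmoidally.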

Sequence of hTREM2 (Q9NZC2 19-230): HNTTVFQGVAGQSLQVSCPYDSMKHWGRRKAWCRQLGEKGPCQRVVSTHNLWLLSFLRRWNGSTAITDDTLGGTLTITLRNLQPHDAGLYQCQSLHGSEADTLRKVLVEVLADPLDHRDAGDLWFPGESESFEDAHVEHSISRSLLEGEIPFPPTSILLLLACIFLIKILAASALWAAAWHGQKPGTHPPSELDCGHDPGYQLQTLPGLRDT
Sequence of hTREM2 (O43914 22-113 partner): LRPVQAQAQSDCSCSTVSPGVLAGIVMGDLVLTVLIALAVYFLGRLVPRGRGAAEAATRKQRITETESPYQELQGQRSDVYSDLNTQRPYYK

SMILES | Emax | EC50 [nM]
Cc1nc2cc([C@@H]3CCO[C@H](c4cccnc4)C3)nc(-c3ccc(Cl)cc3F)c2c(=O)n1C (single isomer, unassigned) [Example 178] | ++++ (Emax>300) | 500 to 3000
Cc1nc2cc(N3CCO[C@H](c4cnn(C)c4)C3)nc(-c3ccc(Cl)cc3F)c2c(=O)n1C [Example 2, 5-(4-chloro-2-fluorophenyl)-2,3-dimethyl-7-((2R)-2-(1-methyl-1H-pyrazol-4-yl)-4-morpholinyl)pyrido[4,3-d]pyrimidin-4(3H)-one] | +++ (Emax>200 and ≤300) | 500 to 3000
Cc1nc2cc(N3CCO[C@H](c4cnn(C)c4)C3)cc(-c3ccc(Cl)cc3F)c2c(=O)n1C [Example 4, 5-(4-chloro-2-fluorophenyl)-2,3-dimethyl-7-((2R)-2-(1-methyl-1H-pyrazol-4-yl)-4-morpholinyl)-4(3H)-quinazolinone] | +++ (Emax>200 and ≤300) | 500 to 3000
Cc1nc2cc(N3CCO[C@H](c4cnn(C)c4)C3)nc(-c3ccc(Cl)cc3)c2c(=O)n1C [Example 6, 5-(4-chlorophenyl)-2,3-dimethyl-7-((2R)-2-(1-methyl-1H-pyrazol-4-yl)-4-morpholinyl)pyrido[4,3-d]pyrimidin-4(3H)-one] | ++ (Emax>100 and ≤200) | 500 to 3000
Cc1ccc(-c2nc(N3CCO[C@@H](c4cnn(C)c4)C3)cc3nc(C)n(C)c(=O)c23)c(F)c1 [Example 12, 5-(2-fluoro-4-methylphenyl)-2,3-dimethyl-7-((2S)-2-(1-methyl-1H-pyrazol-4-yl)-4-morpholinyl)pyrido[4,3-d]pyrimidin-4(3H)-one] | – | 50 to 500
Cc1nc2cc(N3CCO[C@@H](c4cnn(C)c4)C3)nc(-c3ccc(C(F)(F)F)cc3F)c2c(=O)n1C [Example 13, 5-(2-fluoro-4-(trifluoromethyl)phenyl)-2,3-dimethyl-7-((2S)-2-(1-methyl-1H-pyrazol-4-yl)-4-morpholinyl)pyrido[4,3-d]pyrimidin-4(3H)-one] | ++++ (Emax>300) | 50 to 500
Cc1nc2cc(N3CCO[C@@H](c4cnn(C)c4)C3)nc(-c3ccc(Cl)c(F)c3F)c2c(=O)n1C [Example 14, 5-(4-chloro-2,3-difluorophenyl)-2,3-dimethyl-7-((2S)-2-(1-methyl-1H-pyrazol-4-yl)-4-morpholinyl) pyrido[4,3-d]pyrimidin-4(3H)-one] | ++++ (Emax>300) | 50 to 500
Cc1nc2cc(N3CCOC(c4cnn(C)c4)C3)cc(-c3ncc(Cl)cc3F)c2c(=O)n1C (stereo not shown) [Example 15, 5-(5-chloro-3-fluoro-2-pyridinyl)-2,3-dimethyl-7-(2-(1-methyl-1H-pyrazol-4-yl)-4-morpholinyl)-4(3H)-quinazolinone] | ++++ (Emax>300) | 500 to 3000
Cc1cc(Cl)cnc1-c1nc(N2CCOC(c3cnn(C)c3)C2)cc2nc(C)n(C)c(=O)c12 (stereo not shown) [Example 16, 5-(5-chloro-3-methyl-2-pyridinyl)-2,3-dimethyl-7-(2-(1-methyl-1H-pyrazol-4-yl)-4-morpholinyl)pyrido[4,3-d]pyrimidin-4(3H)-one] | + (Emax>45 and ≤100) | 3000 to 100000
Cc1nc2cc(N3CCO[C@@H](c4cnn(C)c4)C3)nc(-c3ccc(C(F)(F)F)nc3)c2c(=O)n1C [Example 17, 2,3-dimethyl-7-((2S)-2-(1-methyl-1H-pyrazol-yl)-4-morpholinyl)-5-(6-(trifluoromethyl)-3-pyridinyl)pyrido[4,3-d]pyrimidin-4(3H)-one] | – | 500 to 3000

The remaining lines, values ahead:

Emax | EC50 [nM] | SMILES
++++ (Emax>300) | 50 to 500 | COc1cc([C@H]2C[C@H](c3cc4nc(C)n(C)c(=O)c4c(-c4ccc(Cl)cc4F)n3)CCO2)ccn1 (single isomer, unassigned) [Example 174]
+++ (Emax>200 and ≤300) | 50 to 500 | COc1cc([C@@H]2C[C@@H](c3cc4nc(C)n(C)c(=O)c4c(-c4ccc(Cl)cc4F)n3)CCO2)ccn1 (single isomer, unassigned) [Example 175]
++++ (Emax>300) | 50 to 500 | Cc1nc2cc([C@H]3CCO[C@@H](c4cccnc4)C3)nc(-c3ccc(Cl)cc3F)c2c(=O)n1C (single isomer, unassigned) [Example 177]
+++ (Emax>200 and ≤300) | 50 to 500 | Cc1nc2cc(N3CCO[C@@H](c4cnn(C)c4)C3)nc(-c3ccc(Cl)cc3F)c2c(=O)n1C [Example 1, 5-(4-chloro-2-fluorophenyl)-2,3-dimethyl-7-((2S)-2-(1-methyl-1H-pyrazol-4-yl)-4-morpholinyl)pyrido[4,3-d]pyrimidin-4(3H)-one]
+++ (Emax>200 and ≤300) | < 50 | Cc1nc2cc(N3CCO[C@@H](c4cnn(C)c4)C3)cc(-c3ccc(Cl)cc3F)c2c(=O)n1C [Example 3, 5-(4-chloro-2-fluorophenyl)-2,3-dimethyl-7-((2S)-2-(1-methyl-1H-pyrazol-4-yl)-4-morpholinyl)-4(3H)-quinazolinone]
++++ (Emax>300) | 50 to 500 | Cc1nc2cc(N3CCO[C@@H](c4cnn(C)c4)C3)nc(-c3ccc(Cl)cc3)c2c(=O)n1C [Example 5, 5-(4-chlorophenyl)-2,3-dimethyl-7-((2S)-2-(1-methyl-1H-pyrazol-4-yl)-4-morpholinyl)-pyrido[4,3-d]pyrimidin-4(3H)-one]
++++ (Emax>300) | 50 to 500 | Cc1nc2cc(N3CCO[C@@H](c4cnn(C)c4)C3)nc(-c3ccc(Cl)c(F)c3)c2c(=O)n1C [Example 7, 5-(4-chloro-3-fluorophenyl)-2,3-dimethyl-7-((2S)-2-(1-methyl-1H-pyrazol-4-yl)-4-morpholinyl)pyrido[4,3-d]pyrimidin-4(3H)-one]
++++ (Emax>300) | 50 to 500 | Cc1nc2cc(N3CCO[C@@H](c4cnn(C)c4)C3)nc(-c3ccc(F)cc3F)c2c(=O)n1C [Example 8, 5-(2,4-difluorophenyl)-2,3-dimethyl-7-((2S)-2-(1-methyl-1H-pyrazol-4-yl)-4-morpholinyl)-pyrido[4,3-d]pyrimidin-4(3H)-one]
+++ (Emax>200 and ≤300) | 50 to 500 | Cc1nc2cc(N3CCO[C@@H](c4cnn(C)c4)C3)nc(-c3ccc(F)c(F)c3F)c2c(=O)n1C [Example 9, 2,3-dimethyl-7-((2S)-2-(1-methyl-1H-pyrazol-4-yl)-4-morpholinyl)-5-(2,3,4-trifluorophenyl)pyrido[4,3-d]pyrimidin-4(3H)-one]
++++ (Emax>300) | 50 to 500 | Cc1nc2cc(N3CCO[C@@H](c4cnn(C)c4)C3)nc(-c3cc(F)c(F)cc3F)c2c(=O)n1C [Example 10, 2,3-dimethyl-7-((2S)-2-(1-methyl-1H-pyrazol-4-yl)-4-morpholinyl)-5-(2,4,5-trifluorophenyl)pyrido[4,3-d]pyrimidin-4(3H)-one]
++++ (Emax>300) | 50 to 500 | Cc1nc2cc(N3CCO[C@@H](c4cnn(C)c4)C3)nc(-c3cc(F)c(Cl)cc3F)c2c(=O)n1C [Example 11, 5-(4-chloro-2,5-difluorophenyl)-2,3-dimethyl-7-((2S)-2-(1-methyl-1H-pyrazol-4-yl)-4-morpholinyl)pyrido[4,3-d]pyrimidin-4(3H)-one]
